Source: US20220160703A1, “TUMOR-SELECTIVE COMBINATION THERAPY” (The Board of Regents of The University of Texas System, priority 2019, published 2022)

What was measured:
[1] = tested on: HMGB1; test: HMGB1 release detection (ELISA); type: cell-based, murine; details: NQO1+ tumor cells (MC38, TC-1, NQO1-overexpressing B16), β-lap 3 hr, 24 hr later
Procedure: FIGS. 5A-F. β-Lap treatment-induced HMGB1 release enhances tumor immunogenicity and triggers antitumor T cell immunity in vivo. (FIG. 5A) MC38, TC-1 and B16 (NQO null and overexpression clones) were treated with β-lap for 3 hr followed by washing and replacing medium. The level of HMGB1 released into the culture supernatant was determined by ELISA 24 hr later. (FIG. 5B) The research schema for in vivo cross-presentation of tumor specific antigen from β-lap-induced dying tumor cells in FIG. 5C and FIG. 5D. (FIGS. 5C-D) Live or β-lap-induced dying MC38-OVA cells were subcutaneously inoculated into the flank of WT or Tlr4^−/− C57BL/6 (n=3-4/group) mice along with or without anti-HMGB1 antibody. […] IFNγ producing cells were determined by ELISPOTs assay (FIG. 5C), and IFNγ secretion level was quantified by CBA mouse IFNγ assay (FIG. 5D). […] Data are shown as mean±SEM from at least two to three independent experiments. *P<0.05, **P<0.01, and ***P<0.001 determined by two-way ANOVA (FIG. 5C and FIG. 5D) or log-rank test (FIG. 5F).
FIGS. 25A-E. IB-DNQ induces tumor ICD and dendritic cell-mediated T cell cross-priming. […] MC38, MC38 NOQ1^−/−, B16, and B16 NOQ1^+ cells were treated with IB-DNQ for 4 h followed by replacing medium and growth for 24 h, culture supernatant was collected and HMGB1 levels were determined by ELISA. […]

[2] = tested on: MC38 tumor; test: MC38 subcutaneous syngeneic tumor model; type: in vivo, mice
Procedure: (FIG. 1A) NQO1 positive tumor cell lines MC38, TC-1 and Ag104Ld and NQO1 negative cell lines Panc02 and B16 grown in 48-well plates were treated with β-lap (0-8 μM) for a 3 hr followed by washing and replacing medium. Cell viability was determined by Sulforhodamine B (SRB) Assay 4 days later. […] (FIG. 1C) MC38 cells with CRISPR-based NQO1 Knockout (MC38 NQO1KO #5) planted in 96-well plates were exposed to β-lap for 3 hr and cell survival was assessed 48 hr later. […] (FIG. 1E) MC38 cells were exposed to a lethal dose of β-lap (4 μM) for indicated times, then stained with 7-AAD and Annexin V followed by flow cytometry analysis. […] (FIG. 1H) MC38 and B16 NQO1 #1 cells were exposed to β-lap for a 3 hr. Catalase (1000 U/ml) was added and cell survival was assessed 48 hr later. (FIG. 1I) C57BL/6 mice (n=5/group) were transplanted with MC38 cells and treated with β-lap (0.03 mg, 0.1 mg or 0.3 mg, intratumorally; or 25 mg/kg, i.v.) every other day for four times. (FIG. 1J) C57BL/6 mice were transplanted with MC38 cells (NQO1 WT or KO, n=5/group) and treated with β-lap (0.3 mg, i.t.) every other day for four times. Tumor growth was monitored twice a week.
(FIG. 2A) MC38 cells were subcutaneously transplanted into C57BL/6 WT (n=5-6/group) and Rag1 KO mice (n=5/group), respectively. Tumor bearing mice were treated with β-lap (0.3 mg, i.t.) every other day for four times. […] (FIG. 2B) MC38 tumor bearing C57BL/6 mice (n=5/group) were treated with β-lap (0.3 mg, i.t.) every other day for four times. For CD8^+ T cell depletion, 200 μg of anti-CD8 antibodies were intraperitoneally injected four times at three days interval during the treatment. (FIG. 2C) TC-1 tumor bearing C57BL/6 mice (n=4-5/group) were treated with β-lap (0.1 mg, i.t.) for four times with or without anti-CD8 antibodies. […] (FIG. 2E) 2×10^6 A549 cells were subcutaneously injected into C57BL/6 Rag1^−/− mice (n=5/group for vehicle and β-lap; n=7/group for vehicle+OT-1 and β-lap+OT-1). 30 days later, the mice were i.v. adoptively transfected with 2×10^6 lymph node cells from OT-1 transgenic mice. On the following day, tumor-bearing mice were intratumorally treated with β-lap (0.2 mg) every other day for 4 times. (FIG. 2F) A549 cells were subcutaneously injected into NSG-SGM3 (n=5/group) or NSG-SGM3 harboring human CD34^+ hematopoietic stem cells (n=5/group for Hu-NSG vehicle; n=6/group for Hu-NSG β-lap). Tumor bearing mice were treated with β-lap (0.2 mg, i.t.) every other day for four times. Tumor growth was measured twice a week.
(FIG. 6A) Treatment schema for local β-lap treatment based combinative therapy in FIG. 6B and FIG. 6C. (FIGS. 6B-C) MC38 tumor cells were s.c. inoculated into the flank of C57BL/6 mice (n=5/group). Mice bearing small tumor (about 50 mm^3, B) or advanced tumor (about 150-200 mm^3, FIG. 6C) were locally treated with β-lap (0.3 mg, i.t.) for four times with or without anti-PD-L1 based checkpoint blockage.

`CC1(C)CCC2=C(O1)c1ccccc1C(=O)C2=O` [β-lap, β-lapachone] was tested, and the HMGB1 secretion [1] was “dose-dependent secretion of HMGB1”, the “re-challenge of cured mice” value ([2]; 3×10^6 MC38 cells, 30 days after complete rejection) was “rejected the re-challenged tumors” and the “therapeutic activity in immune-deficient mice” value ([2]; Rag1 KO C57BL/6 mice, 0.3 mg i.t. four times) was “lost therapeutic activity”. The TGI ([2]; large established tumors (about 150-200 mm^3), β-lap 15 mg/kg i.t. four times, anti-PD-L1 100 μg i.p. three times) was 59.36%, the “Tumor growth inhibition rate (TGI)” value ([2]; local (intratumoral) β-lap 1.5 mg/kg mg, every other day 4 doses) was 11.8% and the “Tumor growth inhibition rate (TGI)” value ([2]; local (intratumoral) β-lap 5 mg/kg, every other day 4 doses) was 69.4%. The “Tumor growth inhibition rate (TGI)” value ([2]; local (intratumoral) β-lap 15 mg/kg mg, every other day 4 doses) was 89.3%, the “Tumor growth inhibition rate (TGI)” value ([2]; systemic β-lap 25 mg/kg i.v., every other day four times) was 62.5% and the “antitumor effect with CD8+ T cell depletion” value ([2]; β-lap 0.3 mg i.t. + anti-CD8 200 μg) was “abolished β-lap's antitumor effect”. For the same compound, the “response with macrophage depletion” value ([2]; β-lap 0.3 mg i.t. + anti-CSF1R Ab 100 μg i.t.) was “did not affect the response”, the “therapeutic effect with type I IFN blockade” value ([2]; β-lap 0.3 mg i.t. + anti-IFNAR1 150 μg i.t.) was “significantly diminished the therapeutic effect” and the “therapeutic effect in Batf3−/− mice” value ([2]; β-lap 0.3 mg i.t. four times) was “no therapeutic effect”. For the same compound, the “tumor regression in Myd88−/− mice” value ([2]; β-lap 0.3 mg i.t. four times) was “disappeared”.
